The subject of data set [1] is SFTSV. The data set is described as follows: microbe, parasite or virus in culture. Format: cell-based, Severe fever with thrombocytopenia syndrome virus. The conditions noted are these: for IC50: Severe fever with thrombocytopenia syndrome virus, HUVEC.
The test system of data set [2] is SFTSV. The format is cell-based, Severe fever with thrombocytopenia syndrome virus.
Data set [3] can be described thus: in vitro. The settings on record: human.
Data set [4] is described as follows: in vitro. The settings on record: African green monkey.
Data set [5] has as its system SFTSV. As to the kind of experiment: microbe, parasite or virus in culture. The format is cell-based. The conditions noted are these: Severe fever with thrombocytopenia syndrome virus, Vero.
For data set [6], the system named is Rift Valley fever virus (RVFV). The format is cell-based.
Data set [7] relates to SARS-CoV-2. The format is cell-based.
For the next data set, the system named is HUVEC cells. The conditions noted are these: human.
In data set [8] the test system is SFTSV. Format: cell-based, Severe fever with thrombocytopenia syndrome virus. This is another data set of the same source.
In data set [9] the test system is SFTSV. The format is cell-based, Severe fever with thrombocytopenia syndrome virus. The source holds these as a separate data set.
For data set [10], the system named is Rift Valley fever virus (RVFV). As to the kind of experiment: microbe, parasite or virus in culture. Format: cell-based. The conditions noted are these: HUVEC.
Data set [11] deals with SFTSV. The conditions noted are these: mouse, in vivo, ip, 1 mg/kg/day.
The test system of data set [12] is SFTSV. The format is cell-based, Severe fever with thrombocytopenia syndrome virus. The source holds these as a separate data set.
The test system of data set [13] is SFTSV. Format: cell-based, Severe fever with thrombocytopenia syndrome virus. The source holds these as a separate data set.
In another data set the test system is SFTSV mini-genome. The format is cell-based, Severe fever with thrombocytopenia syndrome virus.
The test system of data set [14] is SFTSV. Also noted: species or system C57BL/6 mice. The conditions noted are these: mouse, in vivo, ip, 4 mg/kg/day.
Data set [15] has as its system SFTSV. Format: cell-based, Severe fever with thrombocytopenia syndrome virus. This is another data set of the same source.
The test system of data set [16] is SARS-CoV-2. As to the kind of experiment: microbe, parasite or virus in culture. Format: cell-based. The settings on record: Severe acute respiratory syndrome coronavirus 2, Vero C1008.

Take `O=C1OC[C@H]2OC(O)[C@H](O)[C@@H](O)[C@@H]2OC(=O)c2cc(O)c(O)c(O)c2-c2c(O)c(O)c3oc(=O)c4c(c(O)c(O)c5oc(=O)c2c3c54)-c2c1cc(O)c(O)c2O` (mixture of isomers) [Punicalin, punicalin]: the SI with SFTSV [1] is recorded as over 100. The figures for the 50% inhibitory concentration (IC50) with SFTSV [1] and in the data set with SFTSV [5] were 2.5 µM and 3.8 µM, respectively. Moreover, the “virucidal effect on SFTSV virions” value in the data set on SFTSV [2] is reported as “directly inactivated virions in a dose dependent manner”. The CC50 in the data set “in vitro [3]” was over 250 µM; in “in vitro [4]”, over 125 µM.

As to `CC(C)=CCCC(C)(O)C1CCC2(C)C1C(O)CC1C3(C)CCC(OC4OC(CO)C(O)C(O)C4OC4OC(CO)C(O)C(O)C4OC4OCC(O)C(O)C4O)C(C)(C)C3CCC12C` (stereo not shown) [Notoginsenoside Ft1, notoginsenoside Ft1], the results for the IC50 with SFTSV [1] and with SFTSV [5] were 11 µM and 3.5 µM, respectively. Further, the CC50 in the data set “in vitro [3]” was about 62.5 µM; in “in vitro [4]”, over 250 µM.

`CC(=O)O[C@@H]1C[C@H](O)[C@@]23CO[C@@H](O)[C@]1(C)[C@@H]2C[C@@H](O)[C@]1(C)[C@@H]3C(=O)[C@H](OC(C)=O)[C@@]2(C)[C@H](c3ccoc3)C[C@H]3O[C@]321` [Toosendanin, toosendanin]: the “time-of-addition result, RVFV” value in data set [6] is listed as “inhibited the entry step of RVFV”. Moreover, the “time-of-addition result, SARS-CoV-2” value with SARS-CoV-2 [7] is “revealed inhibitory effect when added 1 h post infection”. The CC50 in the data set on HUVEC cells is over 450 µM. Further, 0.052 µM corresponded to half-maximal inhibition in the data set on SFTSV [1] (IC50). In addition, in the data set with SFTSV [8], the Number of particles came to 20 and the “amount of internalized viral particles (microscopy)” value is recorded as “significantly reduced the amount of internalized viral particles”. The “syncytium formation (viral fusion)” value in the data set with SFTSV [9] was “No significant difference of syncytium formation”. In addition, the “virucidal effect on SFTSV virions” value in the data set on SFTSV [2] was “no virucidal effect”. In data set [10], this compound had an IC50 of 0.13 µM, an inhibition at 0.6 µM of 72.6%, an inhibition at 1.8 µM of 82% and an inhibition at 5.6 µM of 95.5%. Moreover, in data set [10], testing at 16.7 µM gave an inhibition of 93.6% and the inhibition at 50 µM was 95.1%. Further, the CC50 in the data set “in vitro [3]” was over 250 µM. In the data set with SFTSV [11], the “megakaryocytes accumulation in spleens (H&E)” value is given as “reduced the megakaryocytes accumulation”, the “viral antigen in spleen sections (immunohistochemistry)” value was “less viral protein positive cells was detected” and the weight loss entry is recorded as “did not lead to weight loss”. In addition, the “vRNA and viral protein expression, time of addition” value with SFTSV [12] is given as “decreased significantly when toosendanin was added prior to but not post SFTSV infection”. Also, the “SFTSV binding (vRNA level of bound virions)” value with SFTSV [13] is recorded as “did not inhibit SFTSV binding”. Also, the “viral RNA replication and transcription (mini-genome)” value in the data set with SFTSV mini-genome was “did not affect the viral RNA replication and transcription”. Also, in the data set on SFTSV [14], the “antigen of SFTSV nucleoprotein in spleen sections” value is reported as “reduced the antigen of SFTSV nucleoprotein in the spleen sections” and the “viral load in the serum” value is listed as “significantly lower than that of the mice in the vehicle control group”. In addition, in the data set on SFTSV [15], the “accumulation of vRNA (internalization), concentration series” value is recorded as “dose dependent inhibition effect on accumulation of vRNA” and the “relative intracellular vRNA (internalization)” value was “significantly reduced”. In the data set on SFTSV [5], this compound yielded an IC50 of 1.2 µM. In the data set on SARS-CoV-2 [16], this compound yielded an IC50 of 0.24 µM, an inhibition at 0.21 µM of 42%, an inhibition at 0.62 µM of 84.6% and an inhibition at 1.85 µM of 92.4%. In the data set on SARS-CoV-2 [16], this compound displayed an inhibition at 5.6 µM of 99%, an inhibition at 16.7 µM of 99.5% and an inhibition at 50 µM of 99.9%.
